{"source": "paper PMC8933873", "about": "(European Journal of Medicinal Chemistry, 2022)"}
{"test_system": "COVID-19", "test": "not given", "details": "non-hospitalized adult patients with mild-to-moderate COVID-19, phase 3 study; cited from earlier work", "units": {"reduction of the risk of hospitalization or death": "%"}}
{"compound": "CC(C)C(=O)OC[C@H]1O[C@@H](n2ccc(NO)nc2=O)[C@H](O)[C@@H]1O", "note": "[Molnupiravir]", "reduction of the risk of hospitalization or death": 30}
{"test_system": "TMEM16F", "test": "not given", "format": "cell-based", "details": "100 nM, 1 h treatment, Vero E6 cells, annexin XII"}
{"compound": "O=C(Nc1ccc([N+](=O)[O-])cc1Cl)c1cc(Cl)ccc1O", "note": "[Compound 1, 5-Chloro-N-(2-chloro-4-nitrophenyl)-2-hydroxybenzamide]", "phosphatidylserine externalization triggered by ionomycin": "significantly reduced the signal of phosphatidylserine on cell surface"}
{"test_system": "TMEM16F", "test": "not given", "format": "cell-based", "details": "500 nM, 1 h treatment, Vero E6 cells, annexin XII"}
{"compound": "Cc1c(O)cccc1C(=O)N[C@@H](CSc1ccccc1)[C@H](O)CN1C[C@H]2CCCC[C@H]2C[C@H]1C(=O)NC(C)(C)C", "note": "[Nelfinavir]", "phosphatidylserine externalization triggered by ionomycin": "no inhibition"}
{"test_system": "SARS-CoV-2 virus strain hCoV-19/Taiwan/4/2020", "test": "not given", "format": "cell-based", "details": "not given"}
{"compound": "O=C(Nc1ccc(F)c(Cl)c1)c1cc(Cl)ccc1O", "note": "[Compound 7, 5-Chloro-N-(3-chloro-4-fluorophenyl)-2-hydroxybenzamide]", "antiviral efficacy in CPE screening": "diminished"}
{"compound": "Cc1cccc(CNC(=O)c2cc(Cl)ccc2O)c1", "note": "[Compound 17, 5-Chloro-N-(3-methylbenzyl)-2-hydroxybenzamide]", "antiviral efficacy in CPE screening": "did not show viral inhibition"}
{"compound": "5-Chloro-N-(4-hydroxybenzyl)-2-hydroxybenzamide [Compound 14]", "antiviral efficacy in CPE screening": "inactive"}
{"compound": "O=C(Nc1ccc(C(F)(F)F)cc1)c1cc(Cl)ccc1O", "note": "[Compound 10, 5-Chloro-N-(4-trifluoromethylphenyl)-2-hydroxybenzamide]", "antiviral efficacy in CPE screening": "antiviral efficacy that were superior to their cytotoxicity"}
{"compound": "O=C(Nc1ccc(O[C@@H]2O[C@H](CO)[C@@H](O)[C@H](O)[C@H]2O)cc1)c1cc(Cl)ccc1O", "note": "[Compound 27, 5-Chloro-N-(4-phenyl-β-D-glucopyranoside)-2-hydroxybenzamide]", "antiviral efficacy in CPE screening": "inactive"}
{"compound": "O=C(Nc1ccccc1)c1cc(Cl)ccc1O", "note": "[Compound 2, 5-Chlorosalicylanilide]", "antiviral efficacy in CPE screening": "antiviral efficacy that were superior to their cytotoxicity"}
{"compound": "O=C(Nc1cccc([N+](=O)[O-])c1)c1cc(Cl)ccc1O", "note": "[Compound 4, 5-Chloro-N-(3-nitrophenyl)-2-hydroxybenzamide]", "antiviral efficacy in CPE screening": "antiviral efficacy that were superior to their cytotoxicity"}
{"compound": "Cc1ccc(O)c(C(=O)Nc2ccc([N+](=O)[O-])cc2Cl)c1", "note": "[Compound 20, 5-Methyl-N-(2-chloro-4-nitrophenyl)-2-hydroxybenzamide]", "antiviral efficacy in CPE screening": "diminished"}
{"compound": "Cc1ccc(C(=O)Nc2ccc([N+](=O)[O-])cc2Cl)c(O)c1", "note": "[Compound 21, 4-Methyl-N-(2-chloro-4-nitrophenyl)-2-hydroxybenzamide]", "antiviral efficacy in CPE screening": "diminished"}
{"compound": "O=C(Nc1ccc([N+](=O)[O-])cc1)c1cc(Cl)ccc1O", "note": "[Compound 3, 5-Chloro-N-(4-nitrophenyl)-2-hydroxybenzamide]", "antiviral efficacy in CPE screening": "antiviral efficacy that were superior to their cytotoxicity"}
{"compound": "O=C(Nc1cccc(Cl)c1)c1cc(Cl)ccc1O", "note": "[Compound 6, 5-Chloro-N-(3-chlorophenyl)-2-hydroxybenzamide]", "antiviral efficacy in CPE screening": "antiviral efficacy that were superior to their cytotoxicity"}
{"compound": "O=C(Nc1cccc(C(F)(F)F)c1)c1cc(Cl)ccc1O", "note": "[Compound 11, 5-Chloro-N-(3-trifluoromethylphenyl)-2-hydroxybenzamide]", "antiviral efficacy in CPE screening": "antiviral efficacy that were superior to their cytotoxicity"}
{"compound": "5-Chloro-N-(3-hydroxybenzyl)-2-hydroxybenzamide [Compound 13]", "antiviral efficacy in CPE screening": "inactive"}
{"compound": "O=C(Nc1ccc([N+](=O)[O-])cc1Cl)c1cc(F)ccc1O", "note": "[Compound 22, 5-Fluoro-N-(2-chloro-4-nitrophenyl)-2-hydroxybenzamide]", "antiviral efficacy in CPE screening": "diminished"}
{"compound": "O=C(Nc1ccc([N+](=O)[O-])cc1Cl)c1ccccc1O", "note": "[Compound 18, N-(2-chloro-4-nitrophenyl)-2-hydroxybenzamide]", "antiviral efficacy in CPE screening": "antiviral efficacy that were superior to their cytotoxicity"}
{"compound": "Cc1ccc(CNC(=O)c2cc(Cl)ccc2O)cc1", "note": "[Compound 16, 5-Chloro-N-(4-methylbenzyl)-2-hydroxybenzamide]", "antiviral efficacy in CPE screening": "did not show viral inhibition"}
{"compound": "CC(C)(C)c1cccc(NC(=O)c2cc(Cl)ccc2O)c1", "note": "[Compound 12, 5-Chloro-N-(3-tert-butylphenyl)-2-hydroxybenzamide]", "antiviral efficacy in CPE screening": "antiviral efficacy that were superior to their cytotoxicity"}
{"compound": "O=C(Nc1cccc(F)c1)c1cc(Cl)ccc1O", "note": "[Compound 9, 5-Chloro-N-(3-fluorophenyl)-2-hydroxybenzamide]", "antiviral efficacy in CPE screening": "inactive"}
{"compound": "O=C(Nc1ccc(N2CCCCC2)cc1)c1cc(Cl)ccc1O", "note": "[Compound 15, 5-Chloro-N-(4-(piperidin-1-yl)phenyl)-2-hydroxybenzamide]", "antiviral efficacy in CPE screening": "inactive"}
{"compound": "O=C(Nc1ccc(F)cc1)c1cc(Cl)ccc1O", "note": "[Compound 8, 5-Chloro-N-(4-fluorophenyl)-2-hydroxybenzamide]", "antiviral efficacy in CPE screening": "inactive"}
{"test_system": "not given", "test": "not given", "details": "GI permeability, 50 μM, 25 °C, 3 h"}
{"compound": "O=C(Nc1ccc(F)c(Cl)c1)c1cc(Cl)ccc1O", "note": "[Compound 7, 5-Chloro-N-(3-chloro-4-fluorophenyl)-2-hydroxybenzamide]", "PAMPA": "11.5 10^−6 cm/s"}
{"compound": "O=C(Nc1ccc([N+](=O)[O-])cc1Cl)c1ccccc1", "note": "[Compound 19, N-(2-chloro-4-nitrophenyl)benzamide]", "PAMPA": "42.2 10^−6 cm/s"}
{"compound": "Cc1cccc(CNC(=O)c2cc(Cl)ccc2O)c1", "note": "[Compound 17, 5-Chloro-N-(3-methylbenzyl)-2-hydroxybenzamide]", "PAMPA": "28.4 10^−6 cm/s"}
{"compound": "5-Chloro-N-(4-hydroxybenzyl)-2-hydroxybenzamide [Compound 14]", "PAMPA": "33.1 10^−6 cm/s"}
{"compound": "O=C(Nc1ccc(C(F)(F)F)cc1)c1cc(Cl)ccc1O", "note": "[Compound 10, 5-Chloro-N-(4-trifluoromethylphenyl)-2-hydroxybenzamide]", "PAMPA": "6.9 10^−6 cm/s"}
{"compound": "O=C(Nc1ccc(O[C@@H]2O[C@H](CO)[C@@H](O)[C@H](O)[C@H]2O)cc1)c1cc(Cl)ccc1O", "note": "[Compound 27, 5-Chloro-N-(4-phenyl-β-D-glucopyranoside)-2-hydroxybenzamide]", "PAMPA": "1.9 10^−6 cm/s"}
{"compound": "O=C(Nc1ccccc1)c1cc(Cl)ccc1O", "note": "[Compound 2, 5-Chlorosalicylanilide]", "PAMPA": "16.0 10^−6 cm/s"}
{"compound": "O=C(Nc1cccc([N+](=O)[O-])c1)c1cc(Cl)ccc1O", "note": "[Compound 4, 5-Chloro-N-(3-nitrophenyl)-2-hydroxybenzamide]", "PAMPA": "19.5 10^−6 cm/s"}
{"compound": "Cc1ccc(O)c(C(=O)Nc2ccc([N+](=O)[O-])cc2Cl)c1", "note": "[Compound 20, 5-Methyl-N-(2-chloro-4-nitrophenyl)-2-hydroxybenzamide]", "PAMPA": "20.9 10^−6 cm/s"}
{"compound": "Cc1ccc(C(=O)Nc2ccc([N+](=O)[O-])cc2Cl)c(O)c1", "note": "[Compound 21, 4-Methyl-N-(2-chloro-4-nitrophenyl)-2-hydroxybenzamide]", "PAMPA": "6.1 10^−6 cm/s"}
{"compound": "O=C(Nc1ccc([N+](=O)[O-])cc1Cl)c1cc(Cl)ccc1O", "note": "[Compound 1, 5-Chloro-N-(2-chloro-4-nitrophenyl)-2-hydroxybenzamide]", "PAMPA": "8.5 10^−6 cm/s"}
{"compound": "O=C(Nc1cccc(Cl)c1)c1cc(Cl)ccc1O", "note": "[Compound 6, 5-Chloro-N-(3-chlorophenyl)-2-hydroxybenzamide]", "PAMPA": "8.6 10^−6 cm/s"}
{"compound": "O=C(Nc1cccc(C(F)(F)F)c1)c1cc(Cl)ccc1O", "note": "[Compound 11, 5-Chloro-N-(3-trifluoromethylphenyl)-2-hydroxybenzamide]", "PAMPA": "4.2 10^−6 cm/s"}
{"compound": "5-Chloro-N-(3-hydroxybenzyl)-2-hydroxybenzamide [Compound 13]", "PAMPA": "15.9 10^−6 cm/s"}
{"compound": "O=C(Nc1ccc([N+](=O)[O-])cc1Cl)c1cc(F)ccc1O", "note": "[Compound 22, 5-Fluoro-N-(2-chloro-4-nitrophenyl)-2-hydroxybenzamide]", "PAMPA": "30.7 10^−6 cm/s"}
{"compound": "O=C(Nc1ccc([N+](=O)[O-])cc1Cl)c1ccccc1O", "note": "[Compound 18, N-(2-chloro-4-nitrophenyl)-2-hydroxybenzamide]", "PAMPA": "15.3 10^−6 cm/s"}
{"compound": "Cc1ccc(CNC(=O)c2cc(Cl)ccc2O)cc1", "note": "[Compound 16, 5-Chloro-N-(4-methylbenzyl)-2-hydroxybenzamide]", "PAMPA": "42.6 10^−6 cm/s"}
{"compound": "CC(C)(C)c1cccc(NC(=O)c2cc(Cl)ccc2O)c1", "note": "[Compound 12, 5-Chloro-N-(3-tert-butylphenyl)-2-hydroxybenzamide]", "PAMPA": "18.7 10^−6 cm/s"}
{"compound": "O=C(Nc1cccc(F)c1)c1cc(Cl)ccc1O", "note": "[Compound 9, 5-Chloro-N-(3-fluorophenyl)-2-hydroxybenzamide]", "PAMPA": "3.7 10^−6 cm/s"}
{"compound": "O=C(Nc1ccc(N2CCCCC2)cc1)c1cc(Cl)ccc1O", "note": "[Compound 15, 5-Chloro-N-(4-(piperidin-1-yl)phenyl)-2-hydroxybenzamide]", "PAMPA": "43.3 10^−6 cm/s"}
{"test_system": "not listed separately", "test": "in vitro", "details": "PAMPA", "units": {"Papp": "×10⁻⁶ cm/s"}}
{"compound": "O=C(Nc1ccc([N+](=O)[O-])cc1)c1cc(Cl)ccc1O", "note": "[Compound 3, 5-Chloro-N-(4-nitrophenyl)-2-hydroxybenzamide]", "Papp": 12.4}
{"compound": "O=C(Nc1ccc(F)cc1)c1cc(Cl)ccc1O", "note": "[Compound 8, 5-Chloro-N-(4-fluorophenyl)-2-hydroxybenzamide]", "Papp": 18.2}
{"test_system": "SARS-CoV-2", "test": "not given", "details": "read-out: Anti-SARS-CoV-2 IC50; literature value; cited from earlier work", "units": {"IC50": "nM"}}
{"compound": "O=C(Nc1ccc([N+](=O)[O-])cc1Cl)c1cc(Cl)ccc1O", "note": "[Compound 1, 5-Chloro-N-(2-chloro-4-nitrophenyl)-2-hydroxybenzamide]", "IC50": 340}
{"test_system": "SARS-CoV-2", "test": "Quantification of SARS-CoV-2 viral load via antibody staining", "format": "cell-based", "details": "not given", "units": {"anti-SARS-CoV-2 activity relative to niclosamide": "fold"}}
{"compound": "O=C(Nc1ccc([N+](=O)[O-])c(Cl)c1)c1cc(Cl)ccc1O", "note": "[Compound 5, 5-Chloro-N-(3-chloro-4-nitrophenyl)-2-hydroxybenzamide]", "anti-SARS-CoV-2 activity relative to niclosamide": 7}
